Laboratory results as given in patent US20130053392A1, “CARBONIC ANHYDRASE INHIBITORS” (priority 2010, published 2013).
“Also recorded” adds a separate entry of the source.

Legend:
[1] = prior art compound (Winum et al); cited from earlier work
[2] = Proliferation/viability assays; type: cell-based; conditions: 33 μM
Description: CA IX inhibition, either using a genetic approach (knock down) or pharmacological (S4) results in a sensitization to irradiation. Genetically or pharmacologically, this sensitization occurs to a similar extent. Pharmacological testing was performed at 33 μM, a concentration selected based on no-toxicity under normoxic conditions based on proliferation/viability assays.

[3] = tested on: 94/1 CA IX knock down cells (HT-29); assay: Clonogenic survival after irradiation, 94/1 cells; type: cell-based, human
Description: (§1) Cells were incubated with S4 1 h after the start of the anoxic/normoxic exposure, during 23 h. […] After incubation, cells were irradiated on ice (MCN 225 industrial X-ray tube (Philips, Eindhoven, NL) at 225 kV and 10 mA under the respective oxygen concentrations using different doses (Normoxia: 0, 2, 4, 6, and 8 Gy; Anoxia: 0, 4, 8, 12 and 16 Gy). After irradiation, cells were washed, trypsinized and plated for the clonogenic survival assay and incubated under standard culture conditions until colonies were formed (14 days). Colonies were fixed and stained with 4% methylene blue in 70% ethanol. Plating efficiency was determined by counting colonies consisting of >50 cells and correcting for the number of cells seeded.

[4] = tested on: HT29 colon carcinoma cells; assay: Mouse xenograft model, HT29 colon carcinoma; type: in vivo, mice
[5] = tested on: FaDU head and neck cells; assay: FaDU spheroid clonogenicity assay with doxorubicin or radiation; type: cell-based; conditions: listed as S4
Description: These studies were undertaken using tumour cells grown into 3-D spheroid cultures that have a natural oxygen gradient. Spheroids of FaDU head and neck cells were generated and treated for 24 h with S4 or vehicle alone; doxorubicin alone or in combination with S4; and S4 or vehicle plus 10 Gy radiotherapy given at the end of the 24 h exposure. Spheroids were treated with trypsin to generate single cell suspensions and plated at various dilutions. Clonogenecity was then recorded per spheroid.
Spheroids were generated by the “liquid overlay technique”. […] The coating prevents the cells from forming monolayers and gives rise of spheroid growth.
The spheroids were grown in a CO2-incubator for 5-7 days. Thereafter, the spheroids were collected and grown in a spinner flask for an additional 5-7 days until they reached a diameter of ˜500-750 μm (10%-0.1% O2 gradient in spheroid).
Spheroids were pooled for the following treatments: • 1. Vehicle for 24 hours • 2. […] Doxorubicin (10 μM) for 24 h • 4. Vehicle for 24 hours followed by 10 Gy radiotherapy • 5.
Directly thereafter, spheroids were digested to single cells using trypsin/EDTA and the cells seeded at a range of concentration in culture plates (clonogenicity assay).
After about a week the cells were stained with methylene blue and the number of colonies counted.

[6] = tested on: MDA231-EGFP cells; assay: Orthotopic MDA231-EGFP mammary fat pad tumour and lung clonogen (metastasis) model; type: in vivo, mice; conditions: 10 mg/kg, 5 days on, 2 days off
Description: 16 mice were implanted with 0.1 ml of a 5×10^7/ml suspension of MDA231-EGFP cells into the mammary fat pad of anaesthetized mice. The cells were prepared in a 1:1 mix of Matrigel: serum-free RMPI.
Mouse condition was monitored daily and tumour volumes recorded at least 3× per week.
Once tumours reached approximately 100 mm^3, they were randomised in to the following treatment groups:
Group 1: 8 mice implanted with MDA231-EGFP cells received vehicle administered in a “5 days on, 2 days” off schedule (ie Mon-Fri dosing each week).
Group 2: 8 mice implanted with MDA231-EGFP cells received CA-IX inhibitor S4 administered at 10 mg/kg dose in a “5 days on, 2 days” off schedule (ie Mon-Fri dosing each week).
Treatment was continued until primary tumours reached a designated endpoint volume of approx 1000 mm^3.
Mouse health and condition was monitored throughout and weights recorded up to 3 times per week.
Before sacrifice Pimonidazole at 0.2 ml of 10 mg/ml solution i/p (2 h before) and 0.1 ml of a 6 mg/ml Hoechst solution (iv) (1 minute before) were administered. Tumour and lungs were rapidly removed for processing.
Clonogens were assessed in lungs using a clonogenic assay. About a quarter of the total lung tissue was taken and weighed. […] Clones were then stained with bromophenol blue and counted, calculating the number per mg of tissue following correction for the dilution.

[7] = tested on: EV/2 CA IX expressing cells (HT-29); assay: Clonogenic survival after irradiation, EV/2 cells; type: cell-based, human; conditions: S4 33 μM 23 h
Description: as §1

[8] = tested on: EV/2 CA IX expressing cells (HT-29); assay: FC11-489A bis binding, flow cytometer, EV/2 cells; conditions: 100 μM, FACS
Description: (§6) Single suspensions were obtained by passing cells through 70 μm nylon cell strainers (BD Biosciences). Mean fluorescence intensity was analyzed using a FACSort flow cytometer (BD Biosciences) using FIT-C filter settings.

[9] = tested on: 94/1 CA IX knock down cells (HT-29); assay: FC11-489A bis binding, fluorescence staining, 94/1 cells; type: cell-based, human; conditions: 100 μM, normoxia, hypoxia, reoxygenation, listed as FC11-489A bis
Description: (§2) Cells were mounted onto slides with Fluorescence Mounting Medium (DAKO) and analyzed with a Zeiss Axioskop fluorescence microscope using FIT-C filter settings.
(§3) Each staining picture was loaded into Image) analysis software (Image J 1.38x NIH USA, http://rsb.info.nih.gov/ij/Java 1.5.0—17), converted to 8-bit images, thresholded to exclude areas without cells and all remaining pixels were analyzed for their intensity.
(§4) For each oxygen condition, for at least 350 pixels fluorescence intensity was analyzed.

[10] = tested on: 94/1 CA IX knock down cells (HT-29); assay: FC11-489A bis binding, flow cytometer, 94/1 cells; conditions: 100 μM, normoxia, hypoxia, reoxygenation, FACS
Description: as §6

[11] = tested on: 94/1 CA IX knock down cells (HT-29); assay: FC11-489A bis binding, plate reader, 94/1 cells; type: cell-based, human; conditions: 100 μM, normoxia, hypoxia, reoxygenation
Text: (§5) Plates were placed in a BMG microplate reader FLUOstare Omega using following protocol: Fluorescence intensity—Well scanning using 5×5 scan matrix in a diameter of 10 mm with 10 flashes per scan point, a gain of 1000 and 355 nm-460 nm filter settings.

[12] = molecular target: T1, hCA IX (Homo sapiens, UniProt Q16790); assay: CA-catalysed CO2 hydration stopped-flow inhibition assay, hCA IX; type: biochemical; conditions: Table 3, stopped flow assay
T1 construct: made in house
Description: Typically, CA inhibition is measured by assaying for CA-catalysed CO2 hydration activity using an appropriate indicator dye. […] Stopped flow spectrophotometry may used to measure the rate of hydration activity.
The uncatalyzed rates were determined in the same manner and subtracted from the total observed rates. Stock solutions of inhibitor (0.1 mM) were prepared in distilled-deionized water and dilutions up to 0.01 nM were done thereafter with distilled-deionized water Inhibitor and enzyme solutions were preincubated together for 15 min at room temperature in order to allow for the formation of the E-I complex. The inhibition constants were obtained by non-linear least-squares methods using PRISM 3, as reported earlier,^1,2,3 and represent the mean from at least three different determinations. All enzymes were recombinant ones, obtained as reported earlier.^2,3 • 1. Khalifah, R. G. The carbon dioxide hydration activity of carbonic anhydrase. I. Stop-flow kinetic studies on the native human isoenzymes B and C. […] Alterio, V.; Hilvo, M.; Di Fiore, A.; Supuran, C. T.; Pan, P.; Parkkila, S.; Scaloni, A.; Pastorek, J.; Pastorekova, S.; Pedone, C.; Scozzafava, A.; Monti, S. M.; De Simone, G. Crystal structure of the extracellular catalytic domain of the tumor-associated human carbonic anhydrase IX. […] T. Carbonic anhydrase inhibitors: X-ray and molecular modeling study for the interaction of a fluorescent antitumor sulfonamide with isozyme II and IX. J. Am. Chem. Soc. […] J. Am. Chem. Soc.

[13] = tested on: EV/2 CA IX expressing cells (HT-29); assay: FC11-489A bis binding, fluorescence staining, EV/2 cells; type: cell-based, human; conditions: 100 μM
Description: as §2, §3, §4

[14] = tested on: EV/2 CA IX expressing cells (HT-29); assay: FC11-489A bis binding, plate reader, EV/2 cells; type: cell-based, human; conditions: 100 μM
Text: as §5

Structure (SMILES): NS(=O)(=O)Oc1ccc(Cl)cc1 [4-chlorophenyl sulphamate]
- stability in solution [1]: relatively unstable in solution

Structure (SMILES): Cc1cc(C)cc(NC(=O)Nc2ccc(OS(N)(=O)=O)cc2)c1 [Compound 3p, 4-[(3,5-dimethylphenyl)ureido]phenyl sulfamate]
- toxicity under normoxic conditions [2]: no-toxicity
- sensitization to irradiation, normoxic exposure ([3]; S4 33 μM 23 h, normoxia): no sensitization to irradiation was demonstrated
- effect on radiosensitivity of knock down cells ([3]; S4 33 μM pretreatment): had no effect on the radiosensitivity
- volume of the tumour versus control ([4]; HT29 xenograft, FIG. 3): significant reduction in the volume of the tumour
- reduction of the tumor growth ([4]; highest dosage of CA inhibitor, HT29 xenograft in nude CD1 mice): 30%
- clonogenic survival, combination with radiation ([5]; S4 33 μM 24 h plus 10 Gy radiotherapy): reduced colongenic survival compared with either agent alone; also recorded: significant reduction in colony formation per spheroid
- clonogenic survival, combination with doxorubicin ([5]; S4 33 μM plus doxorubicin 10 μM, 24 h): reduced colongenic survival compared with either agent alone; also recorded: significant reduction in colony formation per spheroid
- clonogenicity per spheroid, inhibitor alone ([5]; S4 alone (33 μM), 24 h, FIG. 9): little effect on growth of cells isolated from the spheroids; also recorded: little effect on cell growth
- number of metastatic MDA-231 clonogens (colonies per gram of lung tissue) versus vehicle ([6]; FIG. 5): significantly fewer metastatic clonogens
- tumour volume against time versus vehicle ([6]; orthotopic MDA-231 tumours, FIG. 4): little or no effect on the growth of the orthotopic MDA-231 tumours
- sensitization to irradiation, 24 h anoxia ([7]; anoxia, 8, 12 and 16 Gy, FIG. 18): a sensitization to irradiation was observed
- sensitization to irradiation, normoxic exposure ([7]; normoxia, 0-8 Gy): no sensitization to irradiation was demonstrated

Structure (SMILES): NS(=O)(=O)Oc1ccc(NC(=S)Nc2ccc(-c3c4ccc(=O)cc-4oc4cc(O)ccc34)c(C(=O)O)c2)cc1 [Compound 20, 2-(3-Hydroxy-6-oxo-6H-xanthen-9-yl)-5-(3-(4-(sulfamoyloxy)phenyl)thioureido)benzoic acid]
- binding upon reoxygenation versus hypoxic conditions ([8]; 24 h hypoxia then 1 h air): dramatically reduced
- binding (mean fluorescence intensity), hypoxia versus normoxia ([8]; hypoxia 0.2% 24 h, FIG. 13): significant higher binding
- binding at CA IX knock down cells [9]: lower for all experimental conditions compared to the EV/2 cells; also recorded: No significant binding
- binding at CA IX knock down cells [10]: No significant binding
- binding at CA IX knock down cells [11]: No significant binding
- Ki [12]: 14 nM
- binding upon reoxygenation ([13]; 24 h hypoxia then 1 h air, listed as FC11-489A bis): reduced upon reoxygenation to levels similar as normoxia exposure; also recorded: dramatically reduced
- binding (immunofluorescence), hypoxia versus normoxia ([13]; hypoxia 0.2% 24 h, FIG. 14/15, listed as FC11-489A bis): significant higher binding
- binding upon reoxygenation versus hypoxic conditions ([14]; 24 h hypoxia then 1 h air): dramatically reduced
- binding (fluorescence intensity), hypoxia versus normoxia ([14]; hypoxia 0.2% 24 h, FIG. 12): significant higher binding
